For one data set, the system named is BALB/c mice. The data set is described as follows: Maximum tolerated dose, body weight reduction as response. Type of data set: in vivo. The conditions noted are these: intravenously. Here is the method: Next, the maximum tolerated dose of salinomycin and salinomycin-loaded PLA based hybrid block copolymeric salinomycin nanoparticle was probed in BALB/c mice. Mice were administered the salinomycin loaded hybrid block copolymeric nanoparticles once a week for 3 weeks. The body weight reduction was observed as a phenotypic response. The dose-response of salinomycin and the salinomycin nanoparticle was observed by administration intraperitoneally (FIG. 7) and intravenously (FIG. 8). For intraperitoneal administration, mice were administered salinomycin and salinomycin loaded nanoparticles at 5 mg/kg, 7.5 mg/kg, 10 mg/kg. Further, only the salinomycin nanoparticles were administered at 12 mg/kg and 15 mg/kg, intraperitoneally. Three mice were probed at each dose for salinomycin and salinomycin loaded nanoparticle. For intravenous administration, mice were administered salinomycin and salinomycin loaded nanoparticles at 5 mg/kg. Only salinomycin nanoparticles were administered at 1 mg/kg, and 7.5 mg/kg. Further another group of salinomycin at 2.5 mg/kg was also tested. Three mice were probed at each dose for salinomycin and salinomycin loaded nanoparticle. It was observed that free salinomycin was tolerated up to a dose of 10 mg/kg and the salinomycin loaded nanoparticle was tolerated up to 15 mg/kg, when administered intraperitoneally. […]

Another data set has as its system MDA-MB 468 cells. The data set is described as follows: Inhibition of cell proliferation. Type of data set: cell-based. The following applies: Homo sapiens, 5000 cells per well, 0.01-100 μM, 72 hours. Here is the method:
(§1) Next, the potency of inhibition of salinomycin-induced cell growth was probed by comparing the inhibition with salinomycin and salinomycin nanoparticle in MCF-7, MDA-MB 231 and MDA-MB 468 cell lines. […] (see FIG. 6A, B, C). MCF-7 cells at concentration of 5000 cells per well were treated with salinomycin or salinomycin nanoparticles from a concentration of 0.01-100 μM respectively for 72 hours. […] MDA-MB 468 cells at concentration of 5000 cells per well were treated with salinomycin or salinomycin nanoparticles from a concentration of 0.01-100 μM respectively for 72 hours. […] MDA-MB 231 cells at concentration of 5000 cells per well were treated with salinomycin or salinomycin nanoparticles from a concentration of 0.01-100 μM respectively for 72 hours.

The next data set concerns MDA-MB 231 cells. The data set is described as follows: Inhibition of cell proliferation. The conditions noted are these: Homo sapiens, 5000 cells per well, 0.01-100 μM, 72 hours. It counts as cell-based. Here is the method:
as §1

The subject of another data set is MCF-7 cells. The data set is described as follows: Inhibition of cell proliferation. Type of data set: cell-based. The conditions noted are these: Homo sapiens, MCF7; 5000 cells per well, 0.01-100 μM, 72 hours. As to the method:
as §1

What is called IC50 is the concentration at which inhibition is half-maximal. High values mean a need for much substance, low ones inhibition by little substance.

On to `CC[C@@H](C(=O)[C@@H](C)[C@@H](O)[C@H](C)[C@@H]1O[C@@H]([C@@H](CC)C(=O)O)CC[C@@H]1C)[C@H]1O[C@]2(C=C[C@@H](O)[C@]3(CC[C@@](C)([C@H]4CC[C@](O)(CC)[C@H](C)O4)O3)O2)[C@H](C)C[C@@H]1C` [salinomycin], for which the lethal dose with BALB/c mice is 5 mg/kg. Moreover, the IC50 with MDA-MB 468 cells is 1470 nM; in the data set with MDA-MB 231 cells it was 3460 nM; in the data set with MCF-7 cells it was 2270 nM.
